Measurements from US8716473B2, “Substituted benzotriazines and quinoxalines as inhibitors of P7OS6 kinase” (Sentinel Oncology Limited, priority 2009, dated 2014).
Counter-ions that a name gives are not always drawn.

System: phosphorylation of S6 Ser235/236 in MCF-7 cells
Assay: Inhibition of P70S6K activity in whole cells: phospho-S6 ELISA in MCF-7 cells
Assay type: cell-based
Conditions: Homo sapiens, MCF7, 2 h incubation, 1% FBS
Experimental: The following assay provides IC50 values for inhibition of P70S6K activity in a whole cell assay by determining effects on the phosphorylation of S6^Ser235/236 in MCF-7 cells by ELISA.
The following protocol was used: • 1) MCF-7 cells were seeded in 96-well plates at a density of 7×10^3 cells per well and allowed to adhere for 6 h in media containing 10% FBS. • 2) The full serum media was replaced and cells incubated overnight in media containing 1% FBS, prior to addition of test compounds. • 3) Test compounds were prepared from 10 mM or 5 mM (BEZ-235) DMSO stocks to give final concentration ranges as indicated on graphs. DMSO was constant at a final concentration of 1%. • 4) Test compounds were incubated with cells in duplicate for 2 h at 37° C./5% CO2 in a humidified atmosphere. • 5) The media was removed and cells were lysed by freeze-thawing in cell lysis buffer. • 6) Detection of phosphorylated S6Ser235/236 was then carried out using a PathScan ELISA kit (Cell Signaling Technology #7205). • 7) Lysates were diluted 1:1 with sample diluent before being applied to wells coated with an antibody against phosphorylated-S6 protein. • 8) The ELISA was then performed as stated in the manufacturers' instructions. • 9) The raw data were normalised to control values and analysed using a 4-parameter logistic equation in GraphPad Prism.

IC50	SMILES
< 20000 nM	CN(Cc1ccccc1)c1cnc2cc(-c3cncnc3)ccc2n1 [Example 43, Benzyl-methyl-(6-pyrimidin-5-yl-quinoxalin-2-yl)-amine]
< 5000 nM	Oc1cccc(CNc2cnc3cc(-c4cn[nH]c4)ccc3n2)c1 [Example 54, 3-{[6-(1H-Pyrazol-4-yl)-quinoxalin-2-ylamino]-methyl}-phenol]
< 1000 nM	Cc1cccc([C@@H](C)Nc2cnc3cc(-c4cn[nH]c4)ccc3n2)c1 [Example 58, [6-(1H-Pyrazol-4-yl)-quinoxalin-2-yl]-((R)-1-m-tolyl-ethyl)-amine hydrochloride]
< 5000 nM	C[C@H](c1ccccc1)N(C)c1cnc2cc(-c3cn[nH]c3)ccc2n1 [Example 51, Methyl-((R)-1-phenyl-ethyl)-[6-(1H-pyrazol-4-yl)-quinoxalin-2-yl]-amine]
< 1000 nM	COc1cccc([C@@H](C)N(C)c2cnc3cc(-c4cn[nH]c4)ccc3n2)c1 [Example 53, [(R)-1-(3-Methoxy-phenyl)-ethyl]-methyl-[6-(1H-pyrazol-4-yl)-quinoxalin-2-yl]-amine hydrochloride]
< 5000 nM	C[C@H](c1cccc(Cl)c1)N(C)c1cnc2cc(-c3cn[nH]c3)ccc2n1 [Example 56, [(R)-1-(3-Chloro-phenyl)-ethyl]-methyl-[6-(1H-pyrazol-4-yl)-quinoxalin-2-yl]-amine]

Target: p70S6K (h) (Homo sapiens, UniProt P23443)
Assay: Determination of p70S6 inhibitory activity (radiometric 33P-ATP filter assay)
Assay type: biochemical
Conditions: 40 min at room temperature, read-out: IC50 against P70S6 kinase
Experimental: The ability of compounds of the invention to inhibit P70S6 kinase was determined using the protocol below.
• 20 mM MOPS, 1 mM EDTA, 0.01% Brij-35, 5% Glycerol, 0.1% b-mercaptoethanol, 1 mg/mL BSA Method: • p70S6K (h)
In a final reaction volume of 25 μL, p70S6K (h) (5-10 mU) is incubated with 8 mM MOPS pH 7.0, 0.2 mM EDTA, 100 μM KKRNRTLTV, 10 mM Mg acetate and [γ-33P-ATP] (specific activity approx. 500 cpm/pmol, concentration as required). The reaction is initiated by the addition of the MgATP mix. After incubation for 40 minutes at room temperature, the reaction is stopped by the addition of 5 μL of a 3% phosphoric acid solution. 10 μL of the reaction mixture is then spotted onto a P30 filtermat and washed three times for 5 minutes in 75 mM phosphoric acid and once in methanol prior to drying and scintillation counting.

p70S6K (h), sequence (P23443 whole entry): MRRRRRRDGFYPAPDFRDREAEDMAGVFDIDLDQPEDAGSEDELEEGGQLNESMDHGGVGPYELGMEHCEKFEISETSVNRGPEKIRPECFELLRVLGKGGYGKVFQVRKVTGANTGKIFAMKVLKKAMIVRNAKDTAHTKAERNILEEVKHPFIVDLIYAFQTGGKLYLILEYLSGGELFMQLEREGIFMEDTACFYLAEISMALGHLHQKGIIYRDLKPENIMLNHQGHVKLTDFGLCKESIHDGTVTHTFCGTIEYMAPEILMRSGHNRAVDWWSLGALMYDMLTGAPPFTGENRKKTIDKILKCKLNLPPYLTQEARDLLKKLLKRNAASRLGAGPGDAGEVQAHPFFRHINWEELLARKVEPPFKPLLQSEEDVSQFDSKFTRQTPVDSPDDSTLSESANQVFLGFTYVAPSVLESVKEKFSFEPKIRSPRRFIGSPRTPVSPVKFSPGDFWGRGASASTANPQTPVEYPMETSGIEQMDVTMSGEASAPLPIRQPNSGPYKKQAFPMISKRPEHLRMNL

IC50	SMILES
< 100 nM	CN(Cc1ccccc1)c1nc2ccc(-c3cn[nH]c3)cc2[n+]([O-])n1 [Example 34, Benzyl-methyl-[1-oxy-7-(1H-pyrazol-4-yl)-benzo[1,2,4]triazin-3-yl]-amine]
< 100 nM	CN(Cc1ccccc1)c1cnc2cc(-c3cncnc3)ccc2n1 [Example 43, Benzyl-methyl-(6-pyrimidin-5-yl-quinoxalin-2-yl)-amine]
< 1000 nM	CN(Cc1ccccc1)c1cnc2cc(-c3ccncc3)ccc2n1 [Example 22, Benzyl-methyl-(6-pyridin-4-yl-quinoxalin-2-yl)-amine]
< 100 nM	CN(Cc1ccccc1)c1nnc2cc(-c3cn[nH]c3)ccc2n1 [Example 35, Benzyl-methyl-[7-(1H-pyrazol-4-yl)-benzo[1,2,4]triazin-3-yl]-amine]
< 100 nM	Oc1cccc(CNc2cnc3cc(-c4cn[nH]c4)ccc3n2)c1 [Example 54, 3-{[6-(1H-Pyrazol-4-yl)-quinoxalin-2-ylamino]-methyl}-phenol]
< 5000 nM	C[C@H](Nc1cnc2cc(-c3cn[nH]c3)ccc2n1)c1ccccc1 [Example 24, ((S)-1-Phenyl-ethyl)-[6-(1H-pyrazol-4-yl)-quinoxalin-2-yl]-amine hydrochloride]
< 1000 nM	Fc1ccc(CNc2cnc3cc(-c4cn[nH]c4)ccc3n2)cc1C(F)(F)F [Example 20, (4-Fluoro-3-trifluoromethyl-benzyl)-[6-(1H-pyrazol-4-yl)-quinoxalin-2-yl]-amine]
< 1000 nM	FC(F)(F)c1ccc(CNc2cnc3cc(-c4cn[nH]c4)ccc3n2)cc1 [Example 40, [6-(1H-Pyrazol-4-yl)-quinoxalin-2-yl]-(4-trifluoromethyl-benzyl)-amine]
< 1000 nM	CN(Cc1ccc(F)c(C(F)(F)F)c1)c1cnc2cc(-c3cn[nH]c3)ccc2n1 [Example 29, (4-Fluoro-3-trifluoromethyl-benzyl)-methyl-[6-(1H-pyrazol-4-yl)-quinoxalin-2-yl]-amine]
< 1000 nM	CN(Cc1ccccc1)c1cnc2cc(-c3ccncn3)ccc2n1 [Example 23, Benzyl-methyl-(6-pyrimidin-4-yl-quinoxalin-2-yl)-amine]
< 100 nM	CN1CCN(c2cccc(CN(C)c3cnc4cc(-c5cn[nH]c5)ccc4n3)c2)CC1 [Example 48, Methyl-[3-(4-methyl-piperazin-1-yl)-benzyl]-[6-(1H-pyrazol-4-yl)-quinoxalin-2-yl]-amine]
< 1000 nM	COc1ccccc1CNc1cnc2cc(-c3cn[nH]c3)ccc2n1 [Example 19, (2-Methoxy-benzyl)-[6-(1H-pyrazol-4-yl)-quinoxalin-2-yl]-amine]
< 1000 nM	c1ccc2cc(CNc3cnc4cc(-c5cn[nH]c5)ccc4n3)ccc2c1 [Example 39, Naphthalen-2-ylmethyl-[6-(1H-pyrazol-4-yl)-quinoxalin-2-yl]-amine hydrochloride]
< 1000 nM	[O-][n+]1nc(NCc2cccc(Cl)c2)nc2ccc(-c3cn[nH]c3)cc21 [Example 63, (3-Chloro-benzyl)-[1-oxy-7-(1H-pyrazol-4-yl)-benzo[1,2,4]triazin-3-yl]-amine]
< 1000 nM	Clc1ccccc1CNc1cnc2cc(-c3cn[nH]c3)ccc2n1 [Example 10, (2-Chloro-benzyl)-[6-(1H-pyrazol-4-yl)-quinoxalin-2-yl]-amine]
< 1000 nM	C[C@@H](c1ccccc1)N(C)c1cnc2cc(-c3cn[nH]c3)ccc2n1 [Example 57, Methyl-((S)-1-phenyl-ethyl)-[6-(1H-pyrazol-4-yl)-quinoxalin-2-yl]-amine]
< 100 nM	C[C@H](c1ccccc1)N(C)c1cnc2cc(-c3cn[nH]c3)ccc2n1 [Example 51, Methyl-((R)-1-phenyl-ethyl)-[6-(1H-pyrazol-4-yl)-quinoxalin-2-yl]-amine]
< 1000 nM	c1cncc(CNc2cnc3cc(-c4cn[nH]c4)ccc3n2)c1 [Example 15, [6-(1H-Pyrazol-4-yl)-quinoxalin-2-yl]-pyridin-3-ylmethyl-amine hydrochloride]
< 5000 nM	c1cc(CNc2cnc3cc(-c4cn[nH]c4)ccc3n2)ccn1 [Example 14, [6-(1H-Pyrazol-4-yl)-quinoxalin-2-yl]-pyridin-4-ylmethyl-amine hydrochloride]
< 100 nM	Cc1ccc(CNc2cnc3cc(-c4cn[nH]c4)ccc3n2)cc1 [Example 44, (4-Methyl-benzyl)-[6-(1H-pyrazol-4-yl)-quinoxalin-2-yl]-amine]
< 100 nM	COc1cccc([C@@H](C)N(C)c2cnc3cc(-c4cn[nH]c4)ccc3n2)c1 [Example 53, [(R)-1-(3-Methoxy-phenyl)-ethyl]-methyl-[6-(1H-pyrazol-4-yl)-quinoxalin-2-yl]-amine hydrochloride]
< 5000 nM	c1ccc(CNc2cnc3cc(-c4cn[nH]c4)ccc3n2)nc1 [Example 16, [6-(1H-Pyrazol-4-yl)-quinoxalin-2-yl]-pyridin-2-ylmethyl-amine hydrochloride]
< 1000 nM	[O-][n+]1nc(NCc2ccccc2)nc2ccc(-c3cn[nH]c3)cc21 [Example 61, Benzyl-[1-oxy-7-(1H-pyrazol-4-yl)-benzo[1,2,4]triazin-3-yl]-amine]
< 1000 nM	CN(Cc1ccccc1Cl)c1cnc2cc(-c3cn[nH]c3)ccc2n1 [Example 45, (2-Chloro-benzyl)-methyl-[6-(1H-pyrazol-4-yl)-quinoxalin-2-yl]-amine hydrochloride]
< 1000 nM	c1ccc(CNc2nnc3cc(-c4cn[nH]c4)ccc3n2)cc1 [Example 64, Benzyl-[7-(1H-pyrazol-4-yl)-benzo[1,2,4]triazin-3-yl]-amine]
< 1000 nM	[O-][n+]1cc(NCc2ccccc2)nc2ccc(-c3cn[nH]c3)cc21 [Example 65C, benzyl-[4-oxy-6-(1H-pyrazol-4-yl)-quinoxalin-2-yl]-amine]
< 1000 nM	FC(F)(F)Oc1cccc(CNc2cnc3cc(-c4cn[nH]c4)ccc3n2)c1 [Example 30, [6-(1H-Pyrazol-4-yl)-quinoxalin-2-yl]-(3-trifluoromethoxy-benzyl)-amine]
< 100 nM	COc1cccc(CNc2nc3ccc(-c4cn[nH]c4)cc3[n+]([O-])n2)c1 [Example 36, (3-Methoxy-benzyl)-[1-oxy-7-(1H-pyrazol-4-yl)-benzo[1,2,4]triazin-3-yl]-amine]
< 1000 nM	[O-][n+]1nc(NCc2ccc(Cl)cc2)nc2ccc(-c3cn[nH]c3)cc21 [Example 62, (4-Chloro-benzyl)-[1-oxy-7-(1H-pyrazol-4-yl)-benzo[1,2,4]triazin-3-yl]-amine]
< 1000 nM	COc1cccc(CNc2nnc3cc(-c4cn[nH]c4)ccc3n2)c1 [Example 37, (3-Methoxy-benzyl)-[7-(1H-pyrazol-4-yl)-benzo[1,2,4]triazin-3-yl]-amine]
